Results from the NIST ThermoML archive (doi:10.1016/j.jct.2006.10.017).
± gives the expanded uncertainty stated by the source.

Columns and labels:
[1] = xn = mol fraction of the nth substance listed; conditions: 101 kPa, Liquid
[2] = refractive index (Na D-line) (dimensionless); xn = mol fraction of the nth substance listed; conditions: 101 kPa, Liquid

CCCCCCn1cc[n+](C)c1.F[P-](F)(F)(F)(F)F [1-hexyl-3-methylimidazolium hexafluorophosphate] + CCO
Conditions	mass density, [1] [kg/m3]	refractive index, [2]	speed of sound, [1] [m/s]
293.15 K, x1 = 0.0198	830 ± 0.9	1.36597 ± 0.0013	1164 ± 10
293.15 K, x1 = 0.2033	1055.6 ± 0.6	1.39358 ± 0.0013	1248 ± 10
293.15 K, x1 = 0.312	1125.6 ± 0.8	1.40092 ± 0.0013	1300 ± 11
293.15 K, x1 = 0.3897	1161.8 ± 1	1.40471 ± 0.0013	1329 ± 11
293.15 K, x1 = 0.5002	1201.4 ± 1.2	1.40893 ± 0.0013	1360 ± 11
293.15 K, x1 = 0.5982	1228.4 ± 1.5	1.41163 ± 0.0013	1380 ± 11
293.15 K, x1 = 0.6961	1250.2 ± 1.7	1.41394 ± 0.0013	1396 ± 11
293.15 K, x1 = 0.7902	1267.6 ± 1.9	1.41562 ± 0.0013	1410 ± 11
293.15 K, x1 = 0.9033	1285.2 ± 2.2	1.41784 ± 0.0013	1423 ± 11
293.15 K, x1 = 0.992	1297 ± 2.5	1.41884 ± 0.0013	1435 ± 12
293.15 K, x1 = 1	1297.9 ± 2.5	1.41923 ± 0.0013	1438 ± 12
298.15 K, x1 = 0.0198	825.8 ± 0.9	1.36482 ± 0.0013	1150 ± 10
298.15 K, x1 = 0.0465	873.5 ± 0.7	1.37109 ± 0.0013	1160 ± 10
298.15 K, x1 = 0.0991	948.7 ± 0.5	1.38024 ± 0.0013	1185 ± 10
298.15 K, x1 = 0.2033	1051.6 ± 0.5	1.3921 ± 0.0013	1237 ± 10
298.15 K, x1 = 0.312	1121.5 ± 0.8	1.39964 ± 0.0013	1288 ± 11
298.15 K, x1 = 0.3897	1157.7 ± 1	1.40388 ± 0.0013	1317 ± 11
298.15 K, x1 = 0.5002	1197.2 ± 1.2	1.4081 ± 0.0013	1348 ± 11
298.15 K, x1 = 0.5982	1224.4 ± 1.4	1.41098 ± 0.0013	1368 ± 11
298.15 K, x1 = 0.6961	1246.2 ± 1.7	1.41313 ± 0.0013	1384 ± 11
298.15 K, x1 = 0.7902	1263.5 ± 1.9	1.41472 ± 0.0013	1397 ± 11
298.15 K, x1 = 0.9033	1281.1 ± 2.2	1.41645 ± 0.0013	1410 ± 11
298.15 K, x1 = 0.992	1292.8 ± 2.5	1.41775 ± 0.0013	1421 ± 11
298.15 K, x1 = 1	1293.7 ± 2.5	1.41787 ± 0.0013	1424 ± 11
303.15 K, x1 = 0.0198	821.8 ± 0.9	1.36297 ± 0.0013	1134 ± 10
303.15 K, x1 = 0.0465	869.8 ± 0.7	1.36941 ± 0.0013	1144 ± 10
303.15 K, x1 = 0.0991	944.8 ± 0.5	1.3787 ± 0.0014	1169 ± 10
303.15 K, x1 = 0.2033	1047.5 ± 0.5	1.39057 ± 0.0014	1226 ± 10
303.15 K, x1 = 0.312	1117.3 ± 0.8	1.39816 ± 0.0013	1277 ± 10
303.15 K, x1 = 0.3897	1153.6 ± 0.9	1.40239 ± 0.0013	1306 ± 11
303.15 K, x1 = 0.5002	1193.3 ± 1.2	1.40693 ± 0.0013	1336 ± 11
303.15 K, x1 = 0.5982	1220.4 ± 1.4	1.40986 ± 0.0013	1357 ± 11
303.15 K, x1 = 0.6961	1242.2 ± 1.7	1.41197 ± 0.0013	1372 ± 11
303.15 K, x1 = 0.7902	1259.5 ± 1.9	1.41366 ± 0.0013	1386 ± 11
303.15 K, x1 = 0.9033	1277 ± 2.2	1.41525 ± 0.0013	1399 ± 11
303.15 K, x1 = 0.992	1288.7 ± 2.5	1.41635 ± 0.0013	1409 ± 11
303.15 K, x1 = 1	1289.6 ± 2.5	1.41643 ± 0.0013	1411 ± 11

CCCCn1cc[n+](C)c1.F[P-](F)(F)(F)(F)F [1-butyl-3-methylimidazolium hexafluorophosphate] + CCO
Conditions	mass density, 293.15 K [kg/m3]	mass density, 298.15 K [kg/m3]	mass density, 303.15 K [kg/m3]	refractive index, 293.15 K	refractive index, 298.15 K	refractive index, 303.15 K	speed of sound, 293.15 K [m/s]	speed of sound, 298.15 K [m/s]	speed of sound, 303.15 K [m/s]
[1], x1 = 0.0009	791.5 ± 1	787.4 ± 1	783.1 ± 1	–	–	–	1163 ± 10	1144 ± 10	1126 ± 9
[1], x1 = 0.0021	794.3 ± 1	790.1 ± 1	785.8 ± 1	–	–	–	1162 ± 10	1145 ± 10	1128 ± 9
[1], x1 = 0.0033	797 ± 1	792.8 ± 1	788.5 ± 1	–	–	–	1164 ± 10	1146 ± 10	1128 ± 9
[1], x1 = 0.0056	802.3 ± 1	798.1 ± 1	793.8 ± 1	–	–	–	1166 ± 10	1147 ± 10	1130 ± 10
[1], x1 = 0.496	1246.7 ± 1.4	1242.2 ± 1.4	1237.9 ± 1.4	–	–	–	1371 ± 11	1359 ± 11	1347 ± 11
[1], x1 = 0.5032	1249.4 ± 1.4	1245 ± 1.4	1240.7 ± 1.4	–	–	–	1373 ± 11	1361 ± 11	1349 ± 11
[1], x1 = 0.5981	1282 ± 1.7	1277.6 ± 1.6	1273.4 ± 1.6	–	–	–	1397 ± 11	1384 ± 11	1372 ± 11
[1], x1 = 0.7045	1311.6 ± 2	1307.3 ± 1.9	1303 ± 1.9	–	–	–	1417 ± 11	1404 ± 11	1391 ± 11
[1], x1 = 0.8003	1333.9 ± 2.3	1329.6 ± 2.2	1325.4 ± 2.2	–	–	–	1431 ± 11	1418 ± 11	1405 ± 11
[1], x1 = 0.9002	1354.1 ± 2.6	1349.9 ± 2.6	1345.7 ± 2.5	–	–	–	1443 ± 12	1430 ± 12	1418 ± 11
[1], x1 = 0.9834	1368.8 ± 2.9	1364.7 ± 2.8	1360.5 ± 2.8	–	–	–	1454 ± 12	1440 ± 12	1428 ± 12
[1], x1 = 1	1371.6 ± 2.9	1367.3 ± 2.9	1363 ± 2.9	–	–	–	1455 ± 12	1443 ± 12	1431 ± 12
[2], x1 = 0.0009	–	–	–	1.36162 ± 0.0013	1.35956 ± 0.0013	1.35751 ± 0.0013	–	–	–
[2], x1 = 0.0021	–	–	–	1.36196 ± 0.0013	1.3599 ± 0.0013	1.35781 ± 0.0013	–	–	–
[2], x1 = 0.0033	–	–	–	1.36222 ± 0.0013	1.36018 ± 0.0013	1.35812 ± 0.0013	–	–	–
[2], x1 = 0.0056	–	–	–	1.36281 ± 0.0013	1.3608 ± 0.0013	1.35871 ± 0.0013	–	–	–
[2], x1 = 0.496	–	–	–	1.40171 ± 0.0013	1.40034 ± 0.0013	1.3994 ± 0.0013	–	–	–
[2], x1 = 0.5032	–	–	–	1.40193 ± 0.0013	1.40055 ± 0.0013	1.39959 ± 0.0013	–	–	–
[2], x1 = 0.5981	–	–	–	1.40432 ± 0.0013	1.40294 ± 0.0013	1.40176 ± 0.0013	–	–	–
[2], x1 = 0.7045	–	–	–	1.40639 ± 0.0013	1.40507 ± 0.0013	1.40376 ± 0.0013	–	–	–
[2], x1 = 0.8003	–	–	–	1.4079 ± 0.0013	1.40656 ± 0.0013	1.40522 ± 0.0013	–	–	–
[2], x1 = 0.9002	–	–	–	1.4093 ± 0.0013	1.40799 ± 0.0013	1.40666 ± 0.0013	–	–	–
[2], x1 = 0.9834	–	–	–	1.41052 ± 0.0013	1.40923 ± 0.0013	1.40795 ± 0.0013	–	–	–
[2], x1 = 1	–	–	–	1.41069 ± 0.0013	1.40937 ± 0.0013	1.40808 ± 0.0013	–	–	–

CCO [ethanol] + CCCCCCCC[n+]1ccn(C)c1.F[P-](F)(F)(F)(F)F
x2 = 0
Conditions	mass density, 293.15 K [kg/m3]	mass density, 298.15 K [kg/m3]	mass density, 303.15 K [kg/m3]	refractive index, 293.15 K	refractive index, 298.15 K	refractive index, 303.15 K	speed of sound, 293.15 K [m/s]	speed of sound, 298.15 K [m/s]	speed of sound, 303.15 K [m/s]
[1]	789.3 ± 0.9	785.1 ± 0.9	780.7 ± 0.9	–	–	–	1160 ± 10	1143 ± 10	1127 ± 9
[2]	–	–	–	1.36138 ± 0.0013	1.35929 ± 0.0013	1.35725 ± 0.0013	–	–	–
